According to patent publication US20240217983A1, “GPR119 AGONISTS” (Kallyope, Inc., priority 2021, published 2024):

Biological target: T1, human GPR119 (hGPR119) (Homo sapiens, UniProt Q8TDV5)
T1 construct: expressed in transfected cells
T1 sequence (Q8TDV5 1-335): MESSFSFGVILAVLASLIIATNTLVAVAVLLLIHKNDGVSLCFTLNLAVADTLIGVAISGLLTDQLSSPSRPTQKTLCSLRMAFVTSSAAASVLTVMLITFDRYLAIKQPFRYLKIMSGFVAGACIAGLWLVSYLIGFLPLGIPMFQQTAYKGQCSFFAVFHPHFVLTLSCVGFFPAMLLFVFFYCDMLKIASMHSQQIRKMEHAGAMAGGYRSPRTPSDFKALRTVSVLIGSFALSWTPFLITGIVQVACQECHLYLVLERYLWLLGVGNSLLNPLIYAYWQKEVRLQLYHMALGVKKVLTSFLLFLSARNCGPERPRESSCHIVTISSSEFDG
Test: cAMP accumulation assay (Cisbio cAMP Gs dynamic HTRF kit) in CHO-K1 cells stably expressing human GPR119
Type: cell-based
Details: 4-parameter fit; for Emax: 1 h, % activity normalized to Max and Min controls; for EC50: 60 minutes at 37° C.
Method in brief: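 Read-out is HTRF 665/620 nm ratio after 1 h detection at ambient temperature, converted to % activity against positive and negative controls, EC50 and Max activity by 4-parameter fit. Compounds were titrated onto ~10,000 thawed hGPR119-CHO-K1 cells/well for 60 min at 37° C/5% CO2.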

Compound: O=C(CCCCS(=O)(=O)O)N1CCCN(C(=O)Cc2ccc(OCCCC3CCN(c4ncc(Cl)cn4)CC3)cc2F)CC1 [Example 13, 5-(4-(2-(4-(3-(1-(5-chloropyrimidin-2-yl)piperidin-4-yl)propoxy)-2-fluorophenyl)acetyl)-1,4-diazepan-1-yl)-5-oxopentane-1-sulfonic acid]
- Emax: 100 to 130%
- EC50: 100 to 1000 nM

Compound: O=C(Cc1ccc(OCCCC2CC3(CCN(c4ncc(Cl)cn4)CC3)C2)cc1F)N1CCN(C[C@H](O)[C@@H](O)[C@H](O)[C@H](O)CO)CC1 [Example 111, 2-(4-(3-(7-(5-chloropyrimidin-2-yl)-7-azaspiro[3.5]nonan-2-yl)propoxy)-2-fluorophenyl)-1-(4-((2S,3R,4R,5R)-2,3,4,5,6-pentahydroxyhexyl)piperazin-1-yl)ethan-1-one]
- Emax: 100 to 130%
- EC50: ≤ 100 nM

Compound: O=C(Cc1ccc(OCCCC2CCN(c3ncc(Cl)cn3)CC2)cc1F)N1C[C@H]2CN(C[C@H](O)[C@@H](O)[C@H](O)[C@H](O)CO)[C@H]2C1 [Example 37, 2-(4-(3-(1-(5-chloropyrimidin-2-yl)piperidin-4-yl)propoxy)-2-fluorophenyl)-1-((1R,5R)-6-((2S,3R,4R,5R)-2,3,4,5,6-pentahydroxyhexyl)-3,6-diazabicyclo[3.2.0]heptan-3-yl)ethan-1-one]
- Emax: 100 to 130%
- EC50: 100 to 1000 nM

Compound: O=C(Cc1ccc(OCCCC2CCN(c3ncc(Cl)cn3)CC2)cc1F)N1CC2(CCCN2C[C@H](O)[C@H](O)[C@H](O)CO)C1 [Example 60, 2-(4-(3-(1-(5-chloropyrimidin-2-yl)piperidin-4-yl)propoxy)-2-fluorophenyl)-1-(5-((2S,3S,4R)-2,3,4,5-tetrahydroxypentyl)-2,5-diazaspiro[3.4]octan-2-yl)ethan-1-one]
- Emax: ≥ 130%
- EC50: ≤ 100 nM

Compound: O=C(CCCCS(=O)(=O)O)N1CCN(C(=O)Cc2ccc(OCCCC3CCN(c4ncc(Cl)cn4)CC3)cc2F)C2CC21 (stereo not drawn) [Example 17, 5-(5-(2-(4-(3-(1-(5-chloropyrimidin-2-yl)piperidin-4-yl)propoxy)-2-fluorophenyl)acetyl)-2,5-diazabicyclo[4.1.0]heptan-2-yl)-5-oxopentane-1-sulfonic acid]
- Emax: 100 to 130%
- EC50: 100 to 1000 nM

Compound: O=C(Cc1ccc(OCCCC2CCN(C(=O)OC3(C(F)(F)F)COC3)CC2)cc1F)N1CCN(C[C@H](O)[C@@H](O)[C@H](O)[C@H](O)CO)CC1 [Example 105, 3-(trifluoromethyl)oxetan-3-yl 4-(3-(3-fluoro-4-(2-oxo-2-(4-((2S,3R,4R,5R)-2,3,4,5,6-pentahydroxyhexyl)piperazin-1-yl)ethyl)phenoxy)propyl)piperidine-1-carboxylate]
- Emax: 100 to 130%
- EC50: 100 to 1000 nM

Compound: O=C(Cc1ccc(OCCCC2CCN(c3ncc(Cl)cn3)CC2)cc1F)N1C[C@@H]2CCN(C(=O)CCCCS(=O)(=O)O)[C@@H]2C1 [Example 6, 5-((3aS,6aS)-5-(2-(4-(3-(1-(5-chloropyrimidin-2-yl)piperidin-4-yl)propoxy)-2-fluorophenyl)acetyl)hexahydropyrrolo[3,4-b]pyrrol-1(2H)-yl)-5-oxopentane-1-sulfonic acid]
- Emax: ≥ 130%
- EC50: ≤ 100 nM

Compound: O=C(Cc1ccc(OCCCC2CCN(c3ncc(Cl)cn3)CC2)cc1F)N1C[C@H]2C[C@@H]1CN2C[C@H](O)[C@@H](O)[C@H](O)[C@H](O)CO [Example 47, 2-(4-(3-(1-(5-chloropyrimidin-2-yl)piperidin-4-yl)propoxy)-2-fluorophenyl)-1-((1R,4R)-5-((2S,3R,4R,5R)-2,3,4,5,6-pentahydroxyhexyl)-2,5-diazabicyclo[2.2.1]heptan-2-yl)ethan-1-one]
- Emax: 100 to 130%
- EC50: ≤ 100 nM

Compound: O=C(Cc1ccc(OCCCC2CCN(c3ncc(Cl)cn3)CC2)cc1F)N1CC[C@]2(CCC2NCC(O)C(O)C(O)CO)C1 (stereo in doubt) [Example 84, 2-(4-(3-(1-(5-chloropyrimidin-2-yl)piperidin-4-yl)propoxy)-2-fluorophenyl)-1-(1-(((2S,3S,4R)-2,3,4,5-tetrahydroxypentyl)amino)-6-azaspiro[3.4]octan-6-yl)ethan-1-one]
- Emax: ≥ 130%
- EC50: ≤ 100 nM

Compound: O=C(Cc1ccc(OCCCC2CCN(c3ncc(Cl)cn3)CC2)cc1F)N1CCN(C[C@H](O)[C@@H](O)[C@H](O)[C@H](O)CO)C2CC21 (stereo partly drawn) [Example 59, 2-(4-(3-(1-(5-chloropyrimidin-2-yl)piperidin-4-yl)propoxy)-2-fluorophenyl)-1-(5-((2S,3R,4R,5R)-2,3,4,5,6-pentahydroxyhexyl)-2,5-diazabicyclo[4.1.0]heptan-2-yl)ethan-1-one]
- Emax: 100 to 130%
- EC50: ≤ 100 nM

Compound: COCc1cnc(N2CCC(CCCOc3ccc(CC(=O)N4CCN(C[C@H](O)[C@@H](O)[C@H](O)[C@H](O)CO)CC4)c(F)c3)CC2)nc1 [Example 98, 2-(2-fluoro-4-(3-(1-(5-(methoxymethyl)pyrimidin-2-yl)piperidin-4-yl)propoxy)phenyl)-1-(4-((2S,3R,4R,5R)-2,3,4,5,6-pentahydroxyhexyl)piperazin-1-yl)ethan-1-one]
- Emax: 100 to 130%
- EC50: 100 to 1000 nM

Compound: O=C(Cc1ccc(OCCCC2CCN(c3ncc(Cl)cn3)CC2)cc1F)N1CCCN(C[C@H](O)[C@H](O)[C@H](O)CO)CC1 [Example 50, 2-(4-(3-(1-(5-chloropyrimidin-2-yl)piperidin-4-yl)propoxy)-2-fluorophenyl)-1-(4-((2S,3S,4R)-2,3,4,5-tetrahydroxypentyl)-1,4-diazepan-1-yl)ethan-1-one]
- Emax: 100 to 130%
- EC50: ≤ 100 nM

Compound: O=C(Cc1ccc(OCCCCC2CC3(CCN(c4ncc(Cl)cn4)CC3)C2)cc1F)N1CCN(C[C@H](O)[C@@H](O)[C@H](O)[C@H](O)CO)CC1 [Example 112, 2-(4-(4-(7-(5-chloropyrimidin-2-yl)-7-azaspiro[3.5]nonan-2-yl)butoxy)-2-fluorophenyl)-1-(4-((2S,3R,4R,5R)-2,3,4,5,6-pentahydroxyhexyl)piperazin-1-yl)ethan-1-one]
- Emax: 100 to 130%
- EC50: 100 to 1000 nM

Compound: O=C(Cc1ccc(OCCCC2CCN(c3ncc(Cl)cn3)CC2)cc1F)N1CCC2(CCCC2NC[C@H](O)[C@@H](O)[C@H](O)[C@H](O)CO)C1 (stereo in doubt) [Example 77, 2-(4-(3-(1-(5-chloropyrimidin-2-yl)piperidin-4-yl)propoxy)-2-fluorophenyl)-1-(6-(((2S,3R,4R,5R)-2,3,4,5,6-pentahydroxyhexyl)amino)-2-azaspiro[4.4]nonan-2-yl)ethan-1-one]
- Emax: ≥ 130%
- EC50: ≤ 100 nM

Compound: O=C(Cc1ccc(OCCCC2CCN(c3ncc(Cl)cn3)CC2)cc1F)N1CCOC2(CCN(C[C@H](O)[C@@H](O)[C@H](O)[C@H](O)CO)C2)C1 (stereo partly drawn) [Example 81, 2-(4-(3-(1-(5-chloropyrimidin-2-yl)piperidin-4-yl)propoxy)-2-fluorophenyl)-1-(2-((2S,3R,4R,5R)-2,3,4,5,6-pentahydroxyhexyl)-6-oxa-2,9-diazaspiro[4.5]decan-9-yl)ethan-1-one]
- Emax: 100 to 130%
- EC50: ≤ 100 nM

Compound: O=C(Cc1ccc(OCCCC2CCN(c3ncc(Cl)cn3)CC2)cc1F)N1CC2CC(C1)N2C[C@H](O)[C@@H](O)[C@H](O)[C@H](O)CO [Example 49, 2-(4-(3-(1-(5-chloropyrimidin-2-yl)piperidin-4-yl)propoxy)-2-fluorophenyl)-1-(6-((2S,3R,4R,5R)-2,3,4,5,6-pentahydroxyhexyl)-3,6-diazabicyclo[3.1.1]heptan-3-yl)ethan-1-one]
- Emax: 100 to 130%
- EC50: ≤ 100 nM

Compound: O=C(CCCCS(=O)(=O)O)N1CCC2(CCN(C(=O)Cc3ccc(OCCCC4CCN(c5ncc(Cl)cn5)CC4)cc3F)C2)C1 (stereo not drawn) [Example 1, 5-(7-(2-(4-(3-(1-(5-chloropyrimidin-2-yl)piperidin-4-yl)propoxy)-2-fluorophenyl)acetyl)-2,7-diazaspiro[4.4]nonan-2-yl)-5-oxopentane-1-sulfonic acid]
- Emax: 100 to 130%
- EC50: ≤ 100 nM

Compound: O=C(Cc1ccc(OCCC2CC23CCN(c2ncc(Cl)cn2)CC3)cc1F)N1CCN(C[C@H](O)[C@@H](O)[C@H](O)[C@H](O)CO)CC1 (stereo partly drawn) [Example 108, 2-(4-(2-(6-(5-chloropyrimidin-2-yl)-6-azaspiro[2.5]octan-1-yl)ethoxy)-2-fluorophenyl)-1-(4-((2S,3R,4R,5R)-2,3,4,5,6-pentahydroxyhexyl)piperazin-1-yl)ethan-1-one]
- Emax: 100 to 130%
- EC50: 100 to 1000 nM

Compound: O=C(CCCCS(=O)(=O)O)N1CCOC2(CCN(C(=O)Cc3ccc(OCCCC4CCN(c5ncc(Cl)cn5)CC4)cc3F)C2)C1 (stereo not drawn) [Example 24, 5-(2-(2-(4-(3-(1-(5-chloropyrimidin-2-yl)piperidin-4-yl)propoxy)-2-fluorophenyl)acetyl)-6-oxa-2,9-diazaspiro[4.5]decan-9-yl)-5-oxopentane-1-sulfonic acid]
- Emax: 100 to 130%
- EC50: ≤ 100 nM

Compound: O=C(Cc1ccc(OCCCC2CCN(c3ncc(Cl)cn3)CC2)cc1F)N1CC2CC(C1)N2C[C@H](O)[C@H](O)[C@H](O)CO [Example 48, 2-(4-(3-(1-(5-chloropyrimidin-2-yl)piperidin-4-yl)propoxy)-2-fluorophenyl)-1-(6-((2S,3S,4R)-2,3,4,5-tetrahydroxypentyl)-3,6-diazabicyclo[3.1.1]heptan-3-yl)ethan-1-one]
- Emax: ≥ 130%
- EC50: ≤ 100 nM

Compound: O=C(Cc1ccc(OCC2CC(C3CCN(c4ncc(Cl)cn4)CC3)C2)cc1F)N1CCN(C[C@H](O)[C@@H](O)[C@H](O)[C@H](O)CO)CC1 (stereo partly drawn) [Example 114, 2-(4-((3-(1-(5-chloropyrimidin-2-yl)piperidin-4-yl)cyclobutyl)methoxy)-2-fluorophenyl)-1-(4-((2S,3R,4R,5R)-2,3,4,5,6-pentahydroxyhexyl)piperazin-1-yl)ethan-1-one]
- Emax: 100 to 130%
- EC50: ≤ 100 nM
